Measured values taken from ChEMBL document CHEMBL1649349, “Discovery of a novel nitroimidazolyl-oxazolidinone hybrid with potent anti Gram-positive activity: Synthesis and antibacterial evaluation” (Eur J Med Chem, 2011).
≈ marks a conversion by molar mass, not a printed value.

Columns and labels:
[1] = system: Escherichia coli; experiment: Antimicrobial activity against Escherichia coli ATCC 8739 by conventional agar-dilution method; type: functional
[2] = Cytotoxicity against mouse NIH/3T3 cells by MTT colorimetric assay; type: cell-based; conditions: NIH3T3
[3] = system: Pseudomonas aeruginosa; experiment: Antimicrobial activity against Pseudomonas aeruginosa ATCC 9027 by conventional agar-dilution method; type: functional
[4] = system: Micrococcus luteus; experiment: Antimicrobial activity against Micrococcus luteus ATCC 9341 by conventional agar-dilution method; type: functional
[5] = system: Staphylococcus xylosus; experiment: Antimicrobial activity against Staphylococcus xylosus ATCC 2997 by conventional agar-dilution method; type: functional
[6] = system: Corynebacterium glutamicum; experiment: Antimicrobial activity against Corynebacterium glutamicum ATCC 13032 by conventional agar-dilution method; type: functional
[7] = system: Klebsiella pneumoniae; experiment: Antimicrobial activity against Klebsiella pneumoniae ATCC 10031 by conventional agar-dilution method; type: functional
[8] = system: Staphylococcus aureus; experiment: Antimicrobial activity against methicillin-resistant Staphylococcus aureus 3 by conventional agar-dilution method; type: functional
[9] = system: Staphylococcus epidermidis; experiment: Antimicrobial activity against Staphylococcus epidermidis ATCC 12228 by conventional agar-dilution method; type: functional
[10] = system: Staphylococcus warneri; experiment: Antimicrobial activity against Staphylococcus warneri ATCC 27836 by conventional agar-dilution method; type: functional
[11] = system: Staphylococcus aureus; experiment: Antimicrobial activity against Staphylococcus aureus ATCC 6538p by conventional agar-dilution method; type: functional
[12] = system: Staphylococcus saprophyticus; experiment: Antimicrobial activity against Staphylococcus saprophyticus ATCC 15305 by conventional agar-dilution method; type: functional
[13] = system: Mammaliicoccus lentus; experiment: Antimicrobial activity against Staphylococcus lentus ATCC 29070 by conventional agar-dilution method; type: functional
[14] = system: Staphylococcus aureus; experiment: Antimicrobial activity against methicillin-resistant Staphylococcus aureus 17 by conventional agar-dilution method; type: functional
[15] = system: Bacillus subtilis; experiment: Antimicrobial activity against Bacillus subtilis PTCC 1023 by conventional agar-dilution method; type: functional
[16] = system: Staphylococcus aureus; experiment: Antimicrobial activity against methicillin-resistant Staphylococcus aureus 5 by conventional agar-dilution method; type: functional

CC(=O)NC[C@H]1CN(c2ccc(N3CCN(c4nnc(-c5ccc([N+](=O)[O-])s5)s4)CC3)c(F)c2)C(=O)O1
MIC [1]: > 100 µg/mL | IC50 [2]: 184 µg/mL (≈ 336 µM) | MIC [3]: > 100 µg/mL | MIC [4]: 6.25 µg/mL (≈ 11.4 µM) | MIC [5]: 0.098 µg/mL (≈ 0.179 µM) | MIC [6]: 6.25 µg/mL (≈ 11.4 µM) | MIC [7]: 100 µg/mL (≈ 183 µM) | MIC [8]: 0.195 µg/mL (≈ 0.356 µM) | MIC [9]: 0.024 µg/mL (≈ 0.0438 µM) | MIC [10]: 0.049 µg/mL (≈ 0.0895 µM) | MIC [11]: 0.098 µg/mL (≈ 0.179 µM) | MIC [12]: 0.195 µg/mL (≈ 0.356 µM) | MIC [13]: 0.098 µg/mL (≈ 0.179 µM) | MIC [14]: 0.098 µg/mL (≈ 0.179 µM) | MIC [15]: 0.781 µg/mL (≈ 1.43 µM) | MIC [16]: 6.25 µg/mL (≈ 11.4 µM)

CC(=O)NC[C@H]1CN(c2ccc(N3CCN(c4nnc(-c5ccc([N+](=O)[O-])o5)s4)CC3)c(F)c2)C(=O)O1
MIC [1]: > 100 µg/mL | IC50 [2]: 21.8 µg/mL (≈ 41 µM) | MIC [3]: > 100 µg/mL | MIC [4]: 0.391 µg/mL (≈ 0.736 µM) | MIC [5]: 0.024 µg/mL (≈ 0.0452 µM) | MIC [6]: 0.195 µg/mL (≈ 0.367 µM) | MIC [7]: 50 µg/mL (≈ 94.1 µM) | MIC [8]: 0.049 µg/mL (≈ 0.0922 µM) | MIC [9]: 0.006 µg/mL (≈ 0.0113 µM) | MIC [10]: 0.006 µg/mL (≈ 0.0113 µM) | MIC [11]: 0.012 µg/mL (≈ 0.0226 µM) | MIC [12]: 0.024 µg/mL (≈ 0.0452 µM) | MIC [13]: 0.012 µg/mL (≈ 0.0226 µM) | MIC [14]: 0.012 µg/mL (≈ 0.0226 µM) | MIC [15]: 0.391 µg/mL (≈ 0.736 µM) | MIC [16]: 0.195 µg/mL (≈ 0.367 µM)

CC(=O)NC[C@H]1CN(c2ccc(N3CCN(c4nnc(-c5ncc([N+](=O)[O-])n5C)s4)CC3)c(F)c2)C(=O)O1
MIC [1]: > 100 µg/mL | IC50 [2]: > 200 µg/mL | MIC [3]: > 100 µg/mL | MIC [4]: 0.195 µg/mL (≈ 0.357 µM) | MIC [5]: 0.049 µg/mL (≈ 0.0898 µM) | MIC [6]: 0.195 µg/mL (≈ 0.357 µM) | MIC [7]: 0.781 µg/mL (≈ 1.43 µM) | MIC [8]: 0.391 µg/mL (≈ 0.717 µM) | MIC [9]: 0.024 µg/mL (≈ 0.044 µM) | MIC [10]: 0.006 µg/mL (≈ 0.011 µM) | MIC [11]: 0.098 µg/mL (≈ 0.18 µM) | MIC [12]: 0.024 µg/mL (≈ 0.044 µM) | MIC [13]: 0.098 µg/mL (≈ 0.18 µM) | MIC [14]: 0.024 µg/mL (≈ 0.044 µM) | MIC [15]: 0.098 µg/mL (≈ 0.18 µM) | MIC [16]: 0.195 µg/mL (≈ 0.357 µM)

CC(=O)NC[C@H]1CN(c2ccc(N3CCNCC3)c(F)c2)C(=O)O1
MIC [1]: 50 µg/mL (≈ 149 µM) | IC50 [2]: > 200 µg/mL | MIC [3]: > 100 µg/mL | MIC [4]: 1.56 µg/mL (≈ 4.65 µM) | MIC [5]: 3.12 µg/mL (≈ 9.29 µM) | MIC [6]: 1.56 µg/mL (≈ 4.65 µM) | MIC [7]: 25 µg/mL (≈ 74.3 µM) | MIC [8]: 25 µg/mL (≈ 74.3 µM) | MIC [9]: 6.25 µg/mL (≈ 18.6 µM) | MIC [10]: 18 µg/mL (≈ 53.5 µM) | MIC [11]: 12.5 µg/mL (≈ 37.2 µM) | MIC [12]: 3.12 µg/mL (≈ 9.29 µM) | MIC [13]: 12.5 µg/mL (≈ 37.2 µM) | MIC [14]: 25 µg/mL (≈ 74.3 µM) | MIC [15]: 12.5 µg/mL (≈ 37.2 µM) | MIC [16]: 12.5 µg/mL (≈ 37.2 µM)

O=C(O)c1cn(C2CC2)c2cc(N3CCNCC3)c(F)cc2c1=O [CIPROFLOXACIN]
MIC [3]: 0.0391 µg/mL (≈ 0.118 µM) | MIC [4]: 3.12 µg/mL (≈ 9.43 µM) | MIC [5]: 0.391 µg/mL (≈ 1.18 µM) | MIC [6]: 0.391 µg/mL (≈ 1.18 µM) | MIC [7]: 0.003 µg/mL (≈ 0.00905 µM) | MIC [8]: 0.391 µg/mL (≈ 1.18 µM) | MIC [9]: 0.391 µg/mL (≈ 1.18 µM) | MIC [10]: 0.195 µg/mL (≈ 0.589 µM) | MIC [11]: 0.195 µg/mL (≈ 0.589 µM) | MIC [12]: 0.098 µg/mL (≈ 0.296 µM) | MIC [13]: 0.781 µg/mL (≈ 2.36 µM) | MIC [14]: 0.391 µg/mL (≈ 1.18 µM) | MIC [15]: 0.195 µg/mL (≈ 0.589 µM) | MIC [16]: 0.391 µg/mL (≈ 1.18 µM)

CC(=O)NC[C@H]1CN(c2ccc(N3CCOCC3)c(F)c2)C(=O)O1 [LINEZOLID]
MIC [1]: > 100 µg/mL | MIC [3]: > 100 µg/mL | MIC [4]: 0.781 µg/mL (≈ 2.32 µM) | MIC [5]: 0.781 µg/mL (≈ 2.32 µM) | MIC [6]: 0.781 µg/mL (≈ 2.32 µM) | MIC [7]: 6.25 µg/mL (≈ 18.5 µM) | MIC [8]: 0.781 µg/mL (≈ 2.32 µM) | MIC [9]: 0.781 µg/mL (≈ 2.32 µM) | MIC [10]: 0.781 µg/mL (≈ 2.32 µM) | MIC [11]: 0.781 µg/mL (≈ 2.32 µM) | MIC [12]: 0.781 µg/mL (≈ 2.32 µM) | MIC [13]: 1.56 µg/mL (≈ 4.63 µM) | MIC [14]: 0.781 µg/mL (≈ 2.32 µM) | MIC [15]: 0.391 µg/mL (≈ 1.16 µM) | MIC [16]: 0.781 µg/mL (≈ 2.32 µM)
